Results on 33 compounds are retold here after ChEMBL document CHEMBL1134061, “Synthesis and biological evaluations of condensed pyridine and condensed pyrimidine-based HMG-CoA reductase inhibitors” (Bioorg Med Chem Lett, 2001).

Assay [1] concerns the target T1, 3-hydroxy-3-methylglutaryl-coenzyme A reductase (Homo sapiens) (UniProt P04035).
T1 sequence (whole entry): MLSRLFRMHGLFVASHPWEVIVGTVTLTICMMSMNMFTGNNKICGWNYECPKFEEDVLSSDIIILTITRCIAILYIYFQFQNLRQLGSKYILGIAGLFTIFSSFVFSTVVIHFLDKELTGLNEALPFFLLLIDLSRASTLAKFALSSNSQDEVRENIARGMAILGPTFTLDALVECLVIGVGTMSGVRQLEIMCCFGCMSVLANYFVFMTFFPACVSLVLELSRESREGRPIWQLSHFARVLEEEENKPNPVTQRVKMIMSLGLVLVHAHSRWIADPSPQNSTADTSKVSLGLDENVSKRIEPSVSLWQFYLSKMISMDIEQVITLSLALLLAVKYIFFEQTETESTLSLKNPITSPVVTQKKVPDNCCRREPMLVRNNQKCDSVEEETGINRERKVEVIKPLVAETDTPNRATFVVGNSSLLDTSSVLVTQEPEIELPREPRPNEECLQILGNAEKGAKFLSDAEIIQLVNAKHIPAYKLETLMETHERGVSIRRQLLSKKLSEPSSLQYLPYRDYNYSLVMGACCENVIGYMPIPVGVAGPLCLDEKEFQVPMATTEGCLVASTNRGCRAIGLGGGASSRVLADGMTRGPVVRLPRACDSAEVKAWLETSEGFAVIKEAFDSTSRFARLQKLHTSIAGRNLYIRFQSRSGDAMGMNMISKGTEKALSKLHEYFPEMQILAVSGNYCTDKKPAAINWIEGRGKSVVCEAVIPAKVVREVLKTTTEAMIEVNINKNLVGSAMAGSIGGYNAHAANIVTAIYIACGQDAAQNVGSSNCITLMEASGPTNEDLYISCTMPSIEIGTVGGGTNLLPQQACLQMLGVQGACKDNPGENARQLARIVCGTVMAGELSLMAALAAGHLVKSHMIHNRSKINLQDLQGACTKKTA
Put plainly: In vitro HMG-CoA reductase inhibitory activity required to inhibit cellular steroidgenesis in Hep G2 cells (human hepatoma cell line) with pravastatin as reference compound. Type of assay: cell-based. As to conditions: HepG2.

Assay [2] concerns the target T2, 3-hydroxy-3-methylglutaryl-coenzyme A reductase (Rattus norvegicus) (UniProt P51639).
T2 sequence (whole entry): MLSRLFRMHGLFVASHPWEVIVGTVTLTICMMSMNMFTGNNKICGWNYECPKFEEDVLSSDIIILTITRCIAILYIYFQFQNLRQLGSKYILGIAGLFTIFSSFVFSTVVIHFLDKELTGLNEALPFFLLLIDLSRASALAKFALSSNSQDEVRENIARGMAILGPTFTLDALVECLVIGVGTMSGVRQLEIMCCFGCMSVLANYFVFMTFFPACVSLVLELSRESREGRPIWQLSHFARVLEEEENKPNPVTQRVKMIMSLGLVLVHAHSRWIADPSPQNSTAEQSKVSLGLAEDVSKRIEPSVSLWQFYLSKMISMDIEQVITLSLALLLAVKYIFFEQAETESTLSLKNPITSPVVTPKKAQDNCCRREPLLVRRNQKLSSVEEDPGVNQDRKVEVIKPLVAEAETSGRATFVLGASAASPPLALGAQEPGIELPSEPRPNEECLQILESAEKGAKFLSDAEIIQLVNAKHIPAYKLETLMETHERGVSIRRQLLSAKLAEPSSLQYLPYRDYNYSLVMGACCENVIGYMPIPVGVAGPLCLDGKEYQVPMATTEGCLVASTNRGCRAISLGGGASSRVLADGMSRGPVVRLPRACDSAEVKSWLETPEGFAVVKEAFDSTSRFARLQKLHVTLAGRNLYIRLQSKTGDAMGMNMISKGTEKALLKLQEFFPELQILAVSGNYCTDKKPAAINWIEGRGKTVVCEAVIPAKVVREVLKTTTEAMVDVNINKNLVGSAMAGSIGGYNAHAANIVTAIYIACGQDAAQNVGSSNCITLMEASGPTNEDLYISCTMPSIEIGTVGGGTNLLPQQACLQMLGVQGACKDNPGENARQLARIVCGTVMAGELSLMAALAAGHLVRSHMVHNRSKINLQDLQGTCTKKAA
Description: In vitro rat HMG-CoA reductase inhibitory activity required to inhibit sterol synthesis in cell free system with pravastatin as reference compound.

Assay [3] concerns the target T2, 3-hydroxy-3-methylglutaryl-coenzyme A reductase (Rattus norvegicus). Description: In vivo hepatic cholesterol synthesis inhibitory activity in male Sprague-Dawley rat after oral administration at a concentration of 2.0 mg/kg. Type of assay: functional, organism-based. Set-up: dose 2 mg/kg.
The target is the same in assay [4]. Description: In vivo hepatic cholesterol synthesis inhibitory activity in male Sprague-Dawley rat after oral administration at a concentration of 0.2 mg/kg. Type of assay: functional, organism-based. Set-up: dose 0.2 mg/kg.

Broadly, the inhibition is the relative decrease from the control value, in per cent. On to `Cc1nn(Cc2ccccc2)c2nc(C(C)C)c(/C=C/[C@@H](O)C[C@@H](O)CC(=O)O)c(-c3ccc(F)cc3)c12`, for which the Relative potency in assay [1] worked out at 17; in assay [2] it was 63. In addition, the inhibition came out at 45.1% in assay [3] and 16.4% in assay [4].
On to `Cc1nn(C(C)(C)C)c2nc(C(C)C)c(/C=C/[C@@H](O)C[C@@H](O)CC(=O)O)c(-c3ccc(F)cc3)c12`, for which the Relative potency in assay [1] stood at 31; in assay [2], 100. For the same compound, the inhibition in assay [3] turned out to be 86%; in assay [4], 51.8%.
Regarding `CCc1c(C)sc2nc(C(C)C)c(/C=C/[C@@H](O)C[C@@H](O)CC(=O)O)c(-c3ccc(F)cc3)c12`, the Relative potency in assay [1] turned out to be 51; in assay [2] it was 35. The values for the inhibition in assay [3] and in assay [4] were 20.8% and 7.9%, respectively.
Take `CC(C)c1nc2cc(-c3ccco3)nn2c(-c2ccc(F)cc2)c1/C=C/[C@@H](O)C[C@@H](O)CC(=O)O`: the figures for the Relative potency in assay [1] and in assay [2] were under 1 and 13, respectively.
As for `COc1ccc(-n2nc(C)c3c(-c4ccc(F)cc4)c(/C=C/[C@@H](O)C[C@@H](O)CC(=O)O)c(C(C)C)nc32)cc1`, the results for the Relative potency in assay [1] and in assay [2] were 149 and 154, respectively. For the same compound, in assay [3], the inhibition was found to be 48.7%.
Take `CC(C)c1nc2c(cnn2-c2ccccc2)c(-c2ccc(F)cc2)c1/C=C/[C@@H](O)C[C@@H](O)CC(=O)O`: the Relative potency is 10 in assay [1] and 228 in assay [2].
Turning to `Cc1cc2nc(C3CC3)c(/C=C/[C@@H](O)C[C@@H](O)CC(=O)O)c(-c3ccc(F)cc3)n2n1`, the Relative potency in assay [1] is 2; in assay [2], 24. Besides, the inhibition in assay [3] turned out to be 6.5%.
As to `CC(C)c1cc2nc(C3CC3)c(/C=C/[C@@H](O)C[C@@H](O)CC(=O)O)c(-c3ccc(F)cc3)n2n1`, the Relative potency was found to be 1 in assay [1] and 6 in assay [2]. For the same compound, in assay [4], the inhibition was 21.8%.
`CC(C)c1nc2sc3c(c2c(-c2ccc(F)cc2)c1/C=C/[C@@H](O)C[C@@H](O)CC(=O)O)CCC3`: the Relative potency in assay [1] came to 49; in assay [2], 58.
On to `CCc1c(C)sc2nc(C3CC3)c(/C=C/[C@@H](O)C[C@@H](O)CC(=O)O)c(-c3ccc(F)cc3)c12`, for which the results for the Relative potency in assay [1] and in assay [2] were 38 and 65, respectively.
As to `Cc1nn(C)c2nc(C(C)C)c(/C=C/[C@@H](O)C[C@@H](O)CC(=O)O)c(-c3ccc(F)cc3)c12`, the Relative potency came out at 15 in assay [1] and 71 in assay [2]. The inhibition in assay [3] worked out at 48.1%; in assay [4], 41.1%.
Take `CC(C)c1nc2cc(C(C)(C)C)nn2c(-c2ccc(F)cc2)c1/C=C/[C@@H](O)C[C@@H](O)CC(=O)O`: the Relative potency in assay [1] was under 1; in assay [2] it was 4.
Turning to `Cc1nn(C(C)(C)C)c2nc(C3CC3)c(/C=C/[C@@H](O)C[C@@H](O)CC(=O)O)c(-c3ccc(F)cc3)c12`, the figures for the Relative potency in assay [1] and in assay [2] were 11 and 168, respectively. Also, the results for the inhibition in assay [3] and in assay [4] were 72.2% and 4.5%, respectively.
Regarding `Cc1cc2nc(C(C)C)c(/C=C/[C@@H](O)C[C@@H](O)CC(=O)O)c(-c3ccc(F)cc3)n2n1`, the results for the Relative potency in assay [1] and in assay [2] were 3 and 27, respectively. The inhibition in assay [4] is -6.1%.
In the case of `CC(C)c1nc2c(c(C3CC3)nn2-c2ccccc2)c(-c2ccc(F)cc2)c1/C=C/[C@@H](O)C[C@@H](O)CC(=O)O`, the values for the Relative potency in assay [1] and in assay [2] were 7 and 55, respectively.
For the compound `CC(C)c1cc2c(-c3ccc(F)cc3)c(/C=C/[C@@H](O)C[C@@H](O)CC(=O)O)c(C(C)C)nc2s1`, the Relative potency in assay [1] came to 62; in assay [2], 52.
For `Cc1c2c(-c3ccc(F)cc3)c(/C=C/[C@@H](O)C[C@@H](O)CC(=O)O)c(C(C)C)nc2nn1-c1ccccc1`, the Relative potency in assay [1] was found to be 12; in assay [2], 162.
Consider `CC(C)c1nc2sc(-c3ccccc3)cc2c(-c2ccc(F)cc2)c1/C=C/[C@@H](O)C[C@@H](O)CC(=O)O`, for which the Relative potency was 1 in assay [1] and under 1 in assay [2].
For `CCn1ncc2c(-c3ccc(F)cc3)c(/C=C/[C@@H](O)C[C@@H](O)CC(=O)O)c(C(C)C)nc21`, the values for the Relative potency in assay [1] and in assay [2] were 39 and 71, respectively.
For the compound `Cc1cc2c(-c3ccc(F)cc3)c(/C=C/[C@@H](O)C[C@@H](O)CC(=O)O)c(C(C)C)nc2s1`, the Relative potency stood at 22 in assay [1] and 68 in assay [2]. In assay [3], the inhibition is 34.2%.
On to `Cc1nn2c(-c3ccc(F)cc3)c(/C=C/[C@@H](O)C[C@@H](O)CC(=O)O)c(C3CC3)nc2c1C`, for which the results for the Relative potency in assay [1] and in assay [2] were 3 and 25, respectively.
Turning to `O=C(O)C[C@H](O)C[C@H](O)/C=C/c1c(C2CC2)nc2sc3c(c2c1-c1ccc(F)cc1)CCCCC3`, the Relative potency in assay [1] turned out to be 2; in assay [2] it was 23.
As for `Cc1noc2nc(C(C)C)c(/C=C/[C@@H](O)C[C@@H](O)CC(=O)O)c(-c3ccc(F)cc3)c12`, the Relative potency in assay [1] is 1; in assay [2], 170.
As to `CC(C)c1nc2sc3c(c2c(-c2ccc(F)cc2)c1/C=C/[C@@H](O)C[C@@H](O)CC(=O)O)CCCC3`, the Relative potency came out at 19 in assay [1] and 48 in assay [2].
With `O=C(O)C[C@H](O)C[C@H](O)/C=C/c1c(C2CC2)nc2sc3c(c2c1-c1ccc(F)cc1)CCC3`, the Relative potency in assay [1] was determined as 60; in assay [2], 63.
Regarding `CC(C)(C)n1nc(C2CC2)c2c(-c3ccc(F)cc3)c(/C=C/[C@@H](O)C[C@@H](O)CC(=O)O)c(C3CC3)nc21`, the results for the Relative potency in assay [1] and in assay [2] were 2 and 98, respectively.
In the case of `CC(C)c1nc2c3c(nn2c(-c2ccc(F)cc2)c1/C=C/[C@@H](O)C[C@@H](O)CC(=O)O)CCCC3`, the Relative potency in assay [1] stood at 1; in assay [2], 30.
On the same counts, the results for `Cc1sc2nc(C(C)C)c(/C=C/[C@@H](O)C[C@@H](O)CC(=O)O)c(-c3ccc(F)cc3)c2c1-c1ccccc1` are under 1 and 1.
For the compound `CC(C)c1nc2c(c(-c3ccc(Cl)cc3)nn2C)c(-c2ccc(F)cc2)c1/C=C/[C@@H](O)C[C@@H](O)CC(=O)O`, the Relative potency came to 26 in assay [1] and 93 in assay [2].
As for `Cc1nn(-c2ccccn2)c2nc(C3CC3)c(/C=C/[C@@H](O)C[C@@H](O)CC(=O)O)c(-c3ccc(F)cc3)c12`, the Relative potency worked out at 4 in assay [1] and 229 in assay [2].
`Cc1nn2c(-c3ccc(F)cc3)c(/C=C/[C@@H](O)C[C@@H](O)CC(=O)O)c(C3CC3)nc2c1-c1ccccc1`: the Relative potency in assay [1] amounted to 3; in assay [2], 64.
In the case of `Cn1nc(-c2ccccc2)c2c(-c3ccc(F)cc3)c(/C=C/[C@@H](O)C[C@@H](O)CC(=O)O)c(C3CC3)nc21`, the values for the Relative potency in assay [1] and in assay [2] were 14 and 300, respectively. For the same compound, the inhibition in assay [3] came out at 11.5%.
With `CC(C)(C)n1nc(-c2ccccc2)c2c(-c3ccc(F)cc3)c(/C=C/[C@@H](O)C[C@@H](O)CC(=O)O)c(C3CC3)nc21`, the Relative potency was under 1 in assay [1] and 75 in assay [2].
